Source: US7354910B2, “Agent for treating inflammatory bowel diseases” (Seikagaku Kogyo Kabushiki Kaisha, priority 2001, dated 2008)

Tested on: trinitrobenzenesulfonic acid (TNBS)-induced inflammatory bowel disease model
Test: Effect of HA on TNBS-induced inflammatory bowel disease model
Assay type: in vivo, rat
Method: An inflammatory bowel disease model was prepared by carrying out irrigation of colon of a rat with 0.5 ml of 50 mg/ml TNBS (50% ethanol solution). The TNBS-induced inflammatory bowel disease model is a generally used model which has been established as an induced inflammatory bowel disease model (e.g., see GASTROENTEROLOGY, Vol. 109, No. 4, pp. 1344-1367 (1995), and the like).
In order to examine effect of HA on inflammatory bowel diseases, the following drug effect and pharmacological test was carried out using the inflammatory bowel disease model prepared in the above.
The inflammatory bowel disease model animals were divided into the following groups according to respective tested substances, and 2 ml of physiological saline solution (0.3% (w/v)) of each of the following tested substances was injected into the tail vein of each experimental animal.
In the control group, the first administration was carried out just after the preparation of the above model, and then the administration was continuously carried out once a day for 20 days.
In the HA post-administered group, the first administration was carried out just after the preparation of the above model, and then the administration was continuously carried out once a day for 20 days.
In the HA pre-administered group, the first administration was carried out 24 hours before the preparation of the above model, and then the administration was continuously carried out once a day for 20 days.
During the administration period of tested substances, surviving conditions of the animals were observed every day.
In addition, observation and measurement of the following points were carried out on the animals survived on the 20th day after the first administration.
Also, the following numerical values are expressed as “average value±standard error”.
The large intestine was excised and cut open, and the contents were washed using physiological saline. After the adhered moisture was removed, the weight of the large intestine tissue was measured to calculate the weight per 1 cm bowel tissue. Also, the following numerical values are expressed as “average value±standard error”.
Section samples of bowel tissue were prepared and observed under a light microscope.

[1] = HA post-administered group in comparison with the control group, 20th day, light microscope, FIG. 3

sodium hyaluronate [HA]
conditions of diarrhea (HA administered groups, animals survived on the 20th day after the first administration, severe in control group): hardly observed | cell infiltration, microscopic observation of bowel tissue [1]: inhibited significantly | edema, microscopic observation of bowel tissue [1]: significantly alleviated | body weight (average value±standard error) (HA post-administered group, 20th day after the first administration, control 175 ± 4 g, p<0.001): 203 ± 3 g | weight of the large intestine tissue per 1 cm bowel tissue (bowel tissue edema; average value±standard error) (HA post-administered group, 20th day after the first administration, control 448 ± 60, p<0.001): 51 ± 1 mg/cm bowel tissue | survival ratio (HA pre-administered group (first administration 24 hours before model preparation, 2 ml of 0.3% (w/v) into tail vein once a day), after a lapse of 200 hours): 100% | survival rate in comparison with the control group (each of the HA administered groups (post and pre), 2 ml of 0.3% (w/v) i.v. once a day for 20 days, p=0.0086 Logrank test, FIG. 1): significantly improved
